Assay results published in patent publication US20230047816A1 (priority 2018, published 2023).

target: Recombinant full length human PFKFB3 (Homo sapiens, UniProt Q16875); test: PFKFB3 kinase activity assay (ADP production, ADP-Glo)
Sequence (Q16875 whole entry): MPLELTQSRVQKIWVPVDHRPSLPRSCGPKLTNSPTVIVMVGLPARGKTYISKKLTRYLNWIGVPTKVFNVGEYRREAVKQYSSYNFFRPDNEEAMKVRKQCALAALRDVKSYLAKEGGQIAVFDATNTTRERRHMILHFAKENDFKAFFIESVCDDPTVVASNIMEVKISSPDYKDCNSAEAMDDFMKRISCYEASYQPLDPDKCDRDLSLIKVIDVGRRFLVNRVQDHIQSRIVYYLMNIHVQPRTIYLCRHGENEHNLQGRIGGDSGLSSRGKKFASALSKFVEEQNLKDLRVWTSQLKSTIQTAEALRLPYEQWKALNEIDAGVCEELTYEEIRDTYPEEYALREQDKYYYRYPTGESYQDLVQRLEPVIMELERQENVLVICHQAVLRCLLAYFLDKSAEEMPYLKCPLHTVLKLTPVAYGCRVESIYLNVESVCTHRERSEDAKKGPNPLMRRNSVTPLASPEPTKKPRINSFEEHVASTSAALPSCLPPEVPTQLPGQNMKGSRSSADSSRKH

`COC(=O)c1cc(-c2c[nH]nn2)ccc1C(=O)Nc1sc(C)c(-c2ccc(OC)cc2)c1C#N` [Example 9, methyl 2-{[3-cyano-4-(4-methoxyphenyl)-5-methylthiophen-2-yl]carbamoyl}-5-(2H-1,2,3-triazol-4-yl)benzoate] and `CNC(=O)c1cc(CO)ccc1C(=O)Nc1sc(C)c(-c2ccc(OC)cc2)c1C#N` [Example 15, N1-[3-cyano-4-(4-methoxyphenyl)-5-methylthiophen-2-yl]-4-(hydroxymethyl)-N2-methylbenzene-1,2-dicarboxamide] cannot be ordered by IC50: 5 to 20 µM for the first, < 20 µM for the second.

`N#Cc1c(NC(=O)c2ccc(C(=O)O)cc2C(N)=O)sc(-c2ccccc2)c1-c1ccccc1` [Example 11, 3-carbamoyl-4-[(3-cyano-4,5-diphenylthiophen-2-yl)carbamoyl]benzoic acid] and `COc1ccc(-c2c(C)sc(NC(=O)c3ccc(C(=O)O)cc3C(=O)O)c2C#N)cc1` [Example 30, 4-{[3-cyano-4-(4-methoxyphenyl)-5-methylthiophen-2-yl]carbamoyl}benzene-1,3-dicarboxylic acid] cannot be ordered by IC50: < 0.5 µM for the first, < 0.5 µM for the second.

First: O=C(O)c1ccc2c(c1)C(=O)N(c1cc(-c3ccccc3)ccc1CO)C2=O [Example 11]
Second: COC(=O)c1ccc(-c2ccccc2)cc1N1C(=O)c2ccc(C(=O)O)cc2C1=O [Example 37]
The IC50 of the first is higher: 5 to 20 µM for the first, 0.5 to 2 µM for the second. The second is the more potent here.

`COC(=O)c1cc(-c2ccccc2)ccc1N1C(=O)c2ccc(C(=O)O)cc2C1=O` [Example 12, 2-(3-Methoxycarbonylbiphenyl-4-yl)-1,3-dioxo-2,3-dihydro-1H-isoindole-5-carboxylic acid] and `NC(=O)c1ccc2c(c1)C(=O)N(c1ccc(-c3ccccc3)cc1C(=O)O)C2=O` [Example 27] fall in the same range of IC50: 2 to 5 µM for the first, 2 to 5 µM for the second.

First: COc1ccc(-c2c(C)sc(N3C(=O)c4ccc(C(=O)NS(=O)(=O)c5ccccc5)cc4C3=O)c2C#N)cc1 [Example 13, N-{2-[3-Cyano-4-(4-methoxyphenyl)-5-methylthiophen-2-yl]-1,3-dioxo-2,3-dihydro-1H-isoindole-5-carbonyl}-benzenesulfonamide]
Second: COc1ccc(-c2c(C)sc(N3C(=O)c4ccc(C(=O)NS(C)(=O)=O)cc4C3=O)c2C#N)cc1 [Example 14]
The IC50 of the first is higher: 5 to 20 µM for the first, 0.5 to 2 µM for the second. The second is the more potent here.

`COc1ccc(-c2c(C)sc(NC(=O)c3ccc(C(=O)O)cc3C(=O)NCCN(C)C)c2C#N)cc1` [Example 14, 4-{[3-cyano-4-(4-methoxyphenyl)-5-methylthiophen-2-yl]carbamoyl}-3-{[2-(dimethylamino)ethyl]carbamoyl}benzoic acid] and `COc1ccc(-c2c(C)sc(NC(=O)c3cc(C(=O)O)ccc3C(=O)O)c2C#N)cc1` [Example 29, 2-{[3-cyano-4-(4-methoxyphenyl)-5-methylthiophen-2-yl]carbamoyl}benzene-1,4-dicarboxylic acid] cannot be ordered by IC50: < 20 µM for the first, 5 to 20 µM for the second.

Compared with `CCCCS(=O)(=O)NC(=O)c1ccc2c(c1)C(=O)N(c1sc(C)c(-c3ccc(OC)cc3)c1C#N)C2=O` [Example 15], `COc1ccc(-c2c(C)sc(N3C(=O)c4ccc(C(=O)N[C@@H](CO)C(=O)O)cc4C3=O)c2C#N)cc1` [Example 16] is lower in IC50: 5 to 20 µM for the first, 2 to 5 µM for the second. The second is the more potent here.

`O=C(O)c1cc(C(=O)O)c(C(=O)Nc2cc(-c3ccc(F)c(F)c3)ccc2C(=O)O)cc1O` [Example 16, 4-({4-carboxy-3′,4′-difluoro-[1,1′-biphenyl]-3-yl}carbamoyl)-6-hydroxybenzene-1,3-dicarboxylic acid] and `O=C(O)c1cc(C(=O)Nc2cc(-c3ccc(F)c(F)c3)ccc2C(=O)O)c(C(=O)O)cc1O` [Example 28, 2-({4-carboxy-3′,4′-difluoro-[1,1′-biphenyl]-3-yl}carbamoyl)-5-hydroxybenzene-1,4-dicarboxylic acid] cannot be ordered by IC50: < 20 µM for the first, < 0.5 µM for the second.

First: O=C(O)c1ccc(NC(=O)c2cccc(-c3ccccc3)c2)c(C(=O)O)c1 [Example 17, 4-{[1,1′-biphenyl]-3-amido}benzene-1,3-dicarboxylic acid]
Second: O=C(Nc1cc(Cl)c(-c2c[nH]nn2)cc1C(=O)O)c1cccc(-c2ccccc2)c1 [Example 18, 2-([1,1′-biphenyl]-3-carboxamido)-4-chloro-5-(1H-1,2,3-triazol-5-yl)benzoic acid]
The IC50 of the first is lower: 0.5 to 2 µM for the first, 5 to 20 µM for the second.

Compared with `COc1ccc(-c2c(C)sc(N3C(=O)c4ccc(C(=O)N[C@@H](Cc5c[nH]c6ccccc56)C(=O)O)cc4C3=O)c2C#N)cc1` [Example 17], `COc1ccc(-c2c(C)sc(N3C(=O)c4ccc(C(=O)N[C@@H](CCC(N)=O)C(=O)O)cc4C3=O)c2C#N)cc1` [Example 21] is higher in IC50: 0.5 to 2 µM for the first, 5 to 20 µM for the second.

First: O=C(O)c1cc(-c2cnn[nH]2)c(Cl)cc1NC(=O)c1cc(-c2ccc(F)c(F)c2)ccc1C(=O)O [Example 19, 3-((2-carboxy-5-chloro-4-(1H-1,2,3-triazol-5-yl)phenyl)carbamoyl)-3′,4′-difluoro-[1,1′-biphenyl]-4-carboxylic acid]
Second: O=C(O)c1cc(Cl)c(-c2cnn[nH]2)cc1NC(=O)c1cc(-c2ccc(F)c(F)c2)ccc1C(=O)O [Example 20, 3-((2-carboxy-4-chloro-5-(1H-1,2,3-triazol-5-yl)phenyl)carbamoyl)-3′,4′-difluoro-[1,1′-biphenyl]-4-carboxylic acid]
The IC50 of the first is lower: < 0.5 µM for the first, 2 to 5 µM for the second.

Compared with `COc1ccc(-c2c(C)sc(N3C(=O)c4ccc(C(=O)N[C@H](C(=O)O)C(C)C)cc4C3=O)c2C#N)cc1` [Example 19], `COc1ccc(-c2c(C)sc(NC(=O)c3cc(O)c(C(=O)O)cc3C(=O)O)c2C#N)cc1` [Example 33, 4-((3-cyano-4-(4-methoxyphenyl)-5-methylthiophen-2-yl)carbamoyl)-6-hydroxyisophthalic acid] is lower in IC50: 5 to 20 µM for the first, < 0.5 µM for the second. The second is the more potent here.

`O=C(O)c1ccc(-c2ccc(F)c(F)c2)cc1NC(=O)c1cc(-c2cnn[nH]2)ccc1C(=O)O` [Example 21, 3-(2-carboxy-5-(1H-1,2,3-triazol-5-yl)benzamido)-3′,4′-difluoro-[1,1′-biphenyl]-4-carboxylic acid] and `O=C(O)c1ccc(-c2ccc(F)c(F)c2)cc1NC(=O)c1ccc(-c2cnn[nH]2)cc1C(=O)O` [Example 22, 3-[2-carboxy-4-(1H-1,2,3-triazol-5-yl)benzamido]-3′,4′-difluoro-[1,1′-biphenyl]-4-carboxylic acid] cannot be ordered by IC50: < 0.5 µM for the first, < 0.5 µM for the second.

`O=C(NS(=O)(=O)c1ccccc1)c1ccc2c(c1)C(=O)N(c1ccc(-c3ccccc3)cc1C(=O)O)C2=O` [Example 22] and `CCCCS(=O)(=O)NC(=O)c1ccc2c(c1)C(=O)N(c1ccc(-c3ccccc3)cc1C(=O)O)C2=O` [Example 24, 4-[5-(Butane-1-sulfonylaminocarbonyl)-1,3-dioxo-1,3-dihydroisoindol-2-yl]biphenyl-3-carboxylic Acid] fall in the same range of IC50: 2 to 5 µM for the first, 2 to 5 µM for the second.

First: CS(=O)(=O)NC(=O)c1ccc2c(c1)C(=O)N(c1cc(-c3ccccc3)ccc1C(=O)O)C2=O [Example 25, 3-(5-Methanesulfonylaminocarbonyl-1,3-dioxo-1,3-dihydroisoindol-2-yl)biphenyl-4-carboxylic Acid]
Second: NC(=O)c1ccc2c(c1)C(=O)N(c1cc(-c3ccccc3)ccc1C(=O)O)C2=O [Example 28]
The IC50 of the first is lower: < 0.5 µM for the first, 0.5 to 2 µM for the second. The first is the more potent here.

First: CN(C)S(=O)(=O)c1cc(-c2cnn[nH]2)c(Cl)cc1C(=O)Nc1cc(-c2ccc(F)c(F)c2)ccc1C(=O)O [Example 26, 3-(5-chloro-2-(N,N-dimethylsulfamoyl)-4-(1H-1,2,3-triazol-5-yl)benzamido)-3′,4′-difluoro-[1,1′-biphenyl]-4-carboxylic acid]
Second: CS(C)(=O)=NC(=O)c1ccc(C(=O)O)c(C(=O)Nc2cc(-c3ccc(F)c(F)c3)ccc2C(=O)O)c1 [Example 36, 3-(2-carboxy-5-{[methyl(methylidene)oxo-λ^6-sulfanyl]carbamoyl}benzamido)-3′,4′-difluoro-[1,1′-biphenyl]-4-carboxylic acid]
The IC50 of the first is higher: 2 to 5 µM for the first, 0.5 to 2 µM for the second.

`O=C(O)c1cc(C(=O)O)c(C(=O)Nc2cc(-c3ccc(F)c(F)c3)ccc2O)cc1O` [Example 27, 4-((3′,4′-difluoro-4-hydroxy-[1,1′-biphenyl]-3-yl)carbamoyl)-6-hydroxyisophthalic acid] and `O=C(O)c1cc(C(=O)Nc2cc(-c3ccc(F)c(F)c3)ccc2O)c(C(=O)O)cc1O` [Example 37, 2-({3′,4′-difluoro-4-hydroxy-[1,1′-biphenyl]-3-yl}carbamoyl)-5-hydroxybenzene-1,4-dicarboxylic acid] cannot be ordered by IC50: < 0.5 µM for the first, < 0.5 µM for the second.

`O=C(O)c1cc(-c2ccccc2)ccc1N1C(=O)c2ccc(-c3cn(Cc4ccccc4)nn3)cc2C1=O` [Example 29] and `CC(C)(C)C(=O)OCn1cc(-c2ccc3c(c2)C(=O)N(c2ccc(-c4ccccc4)cc2C(=O)O)C3=O)nn1` [Example 30] fall in the same range of IC50: 2 to 5 µM for the first, 2 to 5 µM for the second.

`O=C(O)c1cc(-c2ccccc2)ccc1N1C(=O)c2ccc(-c3c[nH]nn3)cc2C1=O` [Example 31, 4-[1,3-Dioxo-5-(1H-[1,2,3]triazol-4-yl)-1,3-dihydroisoindol-2-yl]biphenyl-3-carboxylic Acid] and `COC(=O)c1cc(-c2ccccc2)ccc1N1C(=O)c2ccc(-c3c[nH]nn3)cc2C1=O` [Example 33] cannot be ordered by IC50: < 0.5 µM for the first, < 20 µM for the second.

`CN(C)C(=O)c1cc(C(=O)O)c(O)cc1C(=O)Nc1cc(-c2ccc(Cl)cc2Cl)ccc1C(=O)O` [Example 32, 3-(4-carboxy-2-(dimethylcarbamoyl)-5-hydroxybenzamido)-2′,4′-dichloro-[1,1′-biphenyl]-4-carboxylic acid] and `O=C(O)c1ccc(C(=O)O)c(C(=O)Nc2nc(-c3ccccc3)cs2)c1` [Example 40, 2-[(4-phenyl-1,3-thiazol-2-yl)carbamoyl]benzene-1,4-dicarboxylic acid] cannot be ordered by IC50: 0.5 to 2 µM for the first, < 20 µM for the second.

Compared with `O=C(O)c1ccc(C(=O)Nc2ncc([N+](=O)[O-])s2)c(C(=O)O)c1` [Example 38, 4-[(5-nitro-1,3-thiazol-2-yl)carbamoyl]benzene-1,3-dicarboxylic acid], `O=C(O)c1ccc(C(=O)O)c(C(=O)Nc2ncc([N+](=O)[O-])s2)c1` [Example 39, 2-[(5-nitro-1,3-thiazol-2-yl)carbamoyl]benzene-1,4-dicarboxylic acid] is higher in IC50: < 0.5 µM for the first, 0.5 to 2 µM for the second.

`COC(=O)c1cc(-c2ccccc2)c(OC)cc1N1C(=O)c2ccc(-c3c[nH]nn3)cc2C1=O` [Example 38] and `CCCCOC(=O)c1ccc2c(c1)C(=O)N(c1cc(OC)c(-c3ccccc3)cc1C(=O)OC)C2=O` [Example 39] cannot be ordered by IC50: 5 to 20 µM for the first, < 20 µM for the second.
